Where “and” joins values, the source holds several entries; their conditions need not be identical. Equal values may be shown once.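 Tested at 5 concentrations; 48 h exposure; 96-well plates; endpoints linearly interpolated, else capped at highest concentration. The concentration for 50% growth inhibition is given as GI50. TGI is the concentration that stops growth completely.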 Where a SMILES comes first, the peptide text is derived from it. The star is where a group is joined. Boc = CC(C)(C)OC(=O)*
Experiments:
Assay in all cases: NCI anticancer screen, dose series, 48 h
[1] = test system: PC-3 prostate
[2] = test system: NCI/ADR-RES ovarian
[3] = test system: KM12 colon
[4] = test system: HS 578T breast
[5] = test system: SF-268 CNS

SMILES | TGI [1] [µM] | TGI [2] [µM] | TGI [3] [µM] | TGI [4] [µM] | TGI [5] [µM] | GI50 [4]
CC(=O)OC12c3ccccc3C(c3ccccc31)C1C(=O)N(c3ccccc3O)C(=O)C12 (centres undefined) | > 100 | > 100 | > 100 | > 100 | > 100 | 
COc1ccc2cc(NC(=O)Nn3cnnc3)ccc2c1 | > 100 |  | > 100 | > 100 | > 100 | 
[N-]=[N+]=NCC(=O)c1c[nH]c(=O)[nH]c1=O | > 100 | > 100 | > 100 | > 100 | > 100 | 
Cc1cc(N(C)C)ccc1N=Nc1ccc2ncccc2c1 | > 100 | > 100 | > 100 | > 100 | > 100 | 
CC(Cc1ccc(O)cn1)(NC(=O)c1ccccc1)C(=O)O (centres undefined) | > 100 | > 100 | > 100 | > 100 | > 100 | 
CO[C@@H]1C[C@H]2[C@@H]3CC[C@H]([C@@H](C)COC(C)=O)[C@@]3(C)CC[C@@H]2[C@@]2(C)CC[C@H]3C[C@]312 | 29.6 | 30.4 | 23.2 | 39.5 | 40.6 | 
Cc1ccc(S(=O)(=O)NN=C2C(C)CC(C(C)(C)C)CC2C)cc1 (centres undefined) | 37.9 | 82.1 | 31.4 | > 100 |  | 
C=CC(C)(C)c1c(OC)oc2ccc(OC)c(C)c2c1=O | > 100 | > 100 | > 100 | > 100 | > 100 | 
COc1ccccc1NC(=S)NNC(=O)c1cc(-c2ccccc2)nc2ccccc12 | 49.3 | 63.5 | 46.5 | 50.2 | 74.8 | 
CC1NC(=O)c2c(-c3ccccc3)nn(-c3ccccc3)c2NC1=O (centres undefined) | > 100 | > 100 | > 100 | > 100 | > 100 | 
Nc1ccc(-c2nnc(-c3c(Cl)c(Cl)c(Cl)c(Cl)c3-c3nc4ccc(C(=O)c5ccccc5)cc4[nH]3)o2)cc1 | 49.9 | 41 | > 100 | > 100 | > 100 | 
Cc1nn(C(=O)c2ccc(Cl)cc2)c2c1C(c1ccccc1)SC(N)=N2 (centres undefined) | > 10 | > 10 | > 10 | > 10 | > 10 | 
CC(C)C1=CC23CCC4C(C)(C(=O)O)CCCC4(C)C2CC1C1C(=O)N(c2ccc(N4C(=O)C5C6CC7C8(C)CCCC(C)(C(=O)O)C8CCC7(C=C6C(C)C)C5C4=O)cc2)C(=O)C13 (centres undefined) | 14.1 |  | 15.2 | 30.2 | 22.3 | 
CC(=O)OCC(OC(C)=O)C(OC(C)=O)C(/C=N\Nc1nc2ccccc2c(=O)[nH]1)OC(C)=O (centres undefined) | > 100 | > 100 | > 100 | > 100 | > 100 | 40.6 µM and 88.4 µM
COc1ccc(-c2nc(SCC(=O)N/N=C/c3ccc([N+](=O)[O-])cc3)[nH]c2-c2ccc(OC)cc2)cc1 | > 100 | 79.7 | 35.9 | 76.3 | > 100 | 
Cc1c(/C=N/NC(=S)Nc2ccc([N+](=O)[O-])cc2)c(=O)n(-c2ccccc2)n1C | 76.8 | 32.1 | 51.1 | 42.2 | 26.7 | 
O=C(O)[C@@]1(Cc2ccc(O)cc2)C[C@@H]2Cc3ccccc3N2N1 | > 100 | > 100 | > 100 | > 100 | > 100 | 
CC1(C)OP(=O)(c2ccccc2)C=C1Br (centres undefined) | > 100 | > 100 | > 100 | > 100 | > 100 | 
CC(=O)OC12c3ccccc3C(c3ccccc31)C1C(=O)N(Nc3ccccc3)C(=O)C12 (centres undefined) | > 100 | > 100 | > 100 | > 100 | > 100 | 
Cc1cc(C)c2c(=O)cc(-c3ccccc3)[nH]c2c1 | > 93.2 | 34.3 | 22.1 | 21.2 | 46.7 | 
CN(NC(=O)c1ccc(Cl)cc1)C1=NCCCCN1 | > 100 | > 100 | > 100 | > 100 | > 100 | 
N#Cc1nc(N)c(C#N)[nH]1 | > 100 | > 100 | > 100 | > 100 | > 100 | 

SMILES | TGI [1] [µM] | TGI [2] [µM] | TGI [3] [µM] | TGI [4] [µM] | TGI [5] [µM] | GI50 [4]
O=C(c1ccccc1)c1ccc(N2C(=O)/C(=C/c3cccc([N+](=O)[O-])c3)N=C2c2ccccc2)c(N2C(=O)/C(=C/c3cccc([N+](=O)[O-])c3)N=C2c2ccccc2)c1 | > 100 | > 100 | > 100 | > 100 | > 100 | 
COc1ccc(-c2c(C(C)=O)c(C)n(C3OC(COC(C)=O)C(OC(C)=O)C(OC(C)=O)C3OC(C)=O)c(=S)c2C#N)cc1 (centres undefined) | > 100 | > 100 | > 100 |  | > 100 | 
Clc1ccc(-c2cn3c(nc4ccccc43)c(/C=C/c3cccs3)n2)cc1 | > 100 | > 100 | > 100 | > 100 | > 100 | 
CC1(C)OC[C@@H]([C@H](C=O)OCc2ccccc2)O1 | > 100 | > 100 | > 100 | > 100 | > 100 | 
Cc1ccc([N+](=O)[O-])cc1S(=O)(=O)Nc1ccc(C(=O)/C=C/c2ccccc2)cc1 | 30.6 | 66.2 | 32.2 | > 100 | 73.2 | 
Oc1c(Nc2ccccc2)cc2c3c1N=NC=3CCN=2 | > 100 | > 100 | > 100 | > 100 | > 100 | 
COc1cc2c(OC)c3cc(C)oc(=O)c3c(O)c2c(O)c1-c1c(OC)cc2c(OC)c3cc(C)oc(=O)c3c(O)c2c1O | 33 | 35.7 | 40.4 | > 100 | 42.6 | 
CCOC(=O)C(=O)N=Nc1c(O)[nH]c2ccccc12 | > 100 | > 100 | > 100 |  | > 100 | 
COc1cc(/C=C2\N=C(c3ccccc3)N(c3ccc4c(c3)Sc3cc(N5C(=O)/C(=C/c6cc(OC)c(OC)c(OC)c6)N=C5c5ccccc5)ccc3N4)C2=O)cc(OC)c1OC | 38.3 | > 100 | > 100 | 88.1 | 37.5 | 
CCN(CC)CCC1CCCCN1CC(=O)N1c2ccccc2NC(=O)CC1C (centres undefined) | > 100 |  | > 100 | > 100 | > 100 | 
CCOC(=O)c1ccc(N(C)Cc2cnc3nc(N)nc(N)c3n2)cc1 | 88.4 | 38.8 | > 100 | 73.1 | > 100 | 
CCN(CC)CCOc1ccc(N2Cc3cc(OC)c(OC)cc3C2=O)cc1 | > 100 | > 100 | > 100 | > 100 | > 100 | 
Brc1ccc(N=C/C=C(\Nc2ccc(Br)cc2)C23CC4CC(CC(C4)C2)C3)cc1 | 41 | > 84.9 | 33.9 | > 67.4 | 37.9 | 
CCOC(=O)c1sc2c(c1OC(=O)c1ccc(Cl)cc1Cl)c(=O)n(-c1ccccc1)c(=S)n2-c1ccccc1 | > 100 | > 47.8 | > 42.3 | > 100 | > 100 | 
CC(=O)c1cc2sc3ccccc3c2[nH]1 | > 100 | > 100 | > 100 |  | > 100 | 
COc1ccc(NS(=O)(=O)c2ccc3ncn(NS(=O)(=O)c4ccc(I)cc4)c(=O)c3c2)cc1 | > 100 | > 100 | > 100 | > 100 | > 100 | 
Cn1c(=O)oc2cc(C(=O)CN3CCN(Cc4ccc5c(c4)OCO5)CC3)c(Cl)cc21 | > 100 | > 100 |  | > 100 | > 100 | 
O=C(CC(O)(C(F)(F)Cl)C(F)(F)Cl)CC(O)(C(F)(F)Cl)C(F)(F)Cl | 8.2 | > 10 | > 10 | 7.86 | > 10 | 
Cc1ccc(C)n1-n1c(Cc2ccc(Cl)cc2)n[nH]c1=O | > 100 | > 100 | > 100 | > 100 | > 100 | 
CCCCCCCCOP(=O)(O)OP(=O)(O)OCC1OC(n2ccc(N)nc2=O)C(O)C1O (centres undefined) | > 100 | > 100 | > 100 | > 100 | > 100 | 
CC1(C)CC(=O)c2c(nc3c(ccc4ccccc43)c2-c2ccc(NC(=O)CCCCCCCCC(=O)Nc3ccc(-c4c5c(nc6c4ccc4ccccc46)CC(C)(C)CC5=O)cc3)cc2)C1 | > 100 | > 100 | > 100 | > 100 | > 100 | 
Cc1ccc(C2=NN=C3C(c4ccccc4)=Nc4ccccc4N3C2)cc1 | > 100 | > 100 | > 100 | 40 | > 49.4 | 

SMILES | TGI [1] [µM] | TGI [2] [µM] | TGI [3] [µM] | TGI [4] [µM] | TGI [5] [µM] | GI50 [4]
CNC(=S)N/N=C(\C)c1cc(OC)c(OC)cc1O | > 100 | > 100 | > 100 |  | > 100 | 
CCOC(=O)C1C(c2ccccc2)C2(C#N)C(=N)OC1(C)C2(C#N)C#N (centres undefined) | > 100 | 85.9 |  | > 100 | 94 | 
C=CC[C@H](O)[C@@](NC(=O)OCc1ccccc1)(Sc1ccc(C)cc1)C(F)(F)F | > 100 | > 100 | > 100 | 82.8 | 47.9 | 
CNC(=O)CNC(=O)C(NC(=O)CNC(=O)C1CCCN1C(=O)C(C)NC(=O)C(NC(=O)OC(C)(C)C)C(C)C)C(C)C (centres undefined) (Boc-VAPGVG-NHMe; configuration not given here) | > 100 | > 100 |  |  | > 100 | 
CC1(C)CCCCC1/C=C/C(CC(O)(C(F)(F)F)C(F)(F)F)=N\Nc1ccc([N+](=O)[O-])cc1[N+](=O)[O-] (centres undefined) | 5.32 | > 100 | 9.75 | 40.6 | 3 | 
O=C(OC1C#CCSCC#C/C=C\1)c1cnc2ccccc2n1 (centres undefined) | > 100 | > 100 |  | > 100 | > 100 | 
Cc1ccc(NC(=O)C23CC4CC(CC(C4)C2)C3)c(C(=O)NNC(=O)c2ccc(Cl)cc2)c1 | 69.5 | 61.1 | 90.9 | 33.8 | > 100 | 
CC(C)(Cl)C(Br)CCC(=CCBr)CBr (mixture of isomers) | 18 | > 24.5 | 5.93 | 19.3 | 4.99 | 
CCCc1c(O)c2ccccc2[nH]c1=O | > 100 | > 100 | > 100 | > 100 |  | 
NC(=S)Nc1c(S(N)(=O)=O)cc(S(N)(=O)=O)c(Cl)c1Cl | > 100 | > 100 | > 100 | > 100 | > 100 | 
O=c1cc(CN2CCCCC2)[nH]c2c1ccc1nc(CN3CCCCC3)cc(=O)n12 | > 100 | > 100 | > 100 | > 100 | > 100 | 
Cc1ccc(OC2CC(n3cnc4c(=O)[nH]c(Br)nc43)OC2Oc2ccc(C)cc2)cc1 (centres undefined) | 49.8 | 69.2 | > 100 | 66.1 | 58.1 | 
O=C(Nn1c(-c2ccccc2)nc2ccccc2c1=O)c1ccc([N+](=O)[O-])cc1 | > 100 | > 100 | > 100 | > 100 | > 100 | 
CCOc1ccc(-n2c(=O)c3nn4c(=O)n(-c5ccc(OCC)cc5)c(=O)c4nn3c2=O)cc1 | > 100 | > 100 | > 100 | > 100 | > 100 | 
COc1ccc(/C=C2\N=C(N3CCOCC3)NC2=O)cc1 | > 100 | > 100 | > 100 | > 100 | > 100 | 
C/C(CC(O)(C(F)(F)Cl)C(F)(F)Cl)=N\Nc1ccccc1 | 78.9 | > 100 | > 100 | 66.2 |  | 
CCOC(=O)C(=NN(C)c1ncccc1N)C(=O)OCC | > 100 | > 100 | > 100 | > 100 | > 100 | 
N=C(N)SCCSC(=N)N | > 100 | > 100 | > 100 | > 100 | > 100 | 
O=c1[nH]ncc2[nH]c(-c3ccccc3)cc12 | 95.1 | 69 | > 100 |  | > 100 | 
N#Cc1nc(/C=C/c2cccs2)oc1N | > 100 |  | > 100 | > 100 | > 100 | 

Reference: PubChem BioAssay (NCI)
